Test [1] deals with Mycobacterium tuberculosis strain H37Rv (ATCC 25618). Kind of test: Antimycobacterial activity, well diffusion method. It counts as cell-based. Conditions: LJM agar, 6 weeks; for MIC: Mycobacterium tuberculosis. (In general: A growth-free zone around the sample is the usual read-out of agar diffusion tests.)
Test [2] deals with Wild-type Mycobacterium tuberculosis biofilm. Kind of test: Inhibition of mycobacterial biofilm formation (crystal violet).
Test [3] deals with T1, leucyl t-RNA synthetase (LeuRS) (Mycobacterium tuberculosis, UniProt P9WFV1).
T1 construct: purchased Sigma-Aldrich
T1 sequence (P9WFV1 whole entry): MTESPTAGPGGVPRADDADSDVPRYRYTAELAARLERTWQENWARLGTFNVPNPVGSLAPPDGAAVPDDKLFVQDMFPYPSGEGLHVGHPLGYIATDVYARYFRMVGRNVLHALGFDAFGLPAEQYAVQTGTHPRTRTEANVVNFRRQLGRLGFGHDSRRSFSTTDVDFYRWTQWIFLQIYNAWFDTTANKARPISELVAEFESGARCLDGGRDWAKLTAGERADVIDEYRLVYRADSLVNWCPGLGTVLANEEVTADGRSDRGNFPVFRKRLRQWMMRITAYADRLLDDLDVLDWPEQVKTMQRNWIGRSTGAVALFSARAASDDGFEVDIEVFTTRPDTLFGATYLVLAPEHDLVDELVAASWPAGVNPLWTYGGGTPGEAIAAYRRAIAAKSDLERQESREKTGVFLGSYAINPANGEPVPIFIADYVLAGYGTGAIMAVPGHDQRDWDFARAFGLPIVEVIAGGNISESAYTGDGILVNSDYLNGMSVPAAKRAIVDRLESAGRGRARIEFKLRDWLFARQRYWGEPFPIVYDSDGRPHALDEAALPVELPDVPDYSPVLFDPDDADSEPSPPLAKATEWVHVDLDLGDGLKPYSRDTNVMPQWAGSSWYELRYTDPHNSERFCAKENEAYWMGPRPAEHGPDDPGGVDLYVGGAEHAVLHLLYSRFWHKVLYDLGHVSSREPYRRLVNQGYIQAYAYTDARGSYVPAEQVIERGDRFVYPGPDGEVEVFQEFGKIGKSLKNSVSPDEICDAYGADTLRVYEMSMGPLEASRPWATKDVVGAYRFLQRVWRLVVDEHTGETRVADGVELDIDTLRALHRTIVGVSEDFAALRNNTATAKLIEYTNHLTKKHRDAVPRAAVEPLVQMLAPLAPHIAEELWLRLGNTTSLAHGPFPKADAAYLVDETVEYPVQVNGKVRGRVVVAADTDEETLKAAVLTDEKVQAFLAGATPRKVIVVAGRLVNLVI
Kind of test: biochemical. Conditions: for Binding Enthalpy ΔH / Kd: ITC; for Kd: pH 7.0, read-out: Floating Association Constant ka (converted). It counts as binding.

In test [4] the test system is Leucyl-tRNA synthetase mRNA. Kind of test: Leucyl t-RNA synthetase gene expression inhibition (qPCR). It counts as cell-based. Conditions: A549 cells, 25 µL (10 mM) overnight, RT-PCR, in words. (In qPCR the cycle at which signal appears reflects the starting amount.)
Setting [5] is: Conc. of Ligand/Protein 0.0125 µM.
Setting [6] is: Conc. of Ligand/Protein 0.025 µM.
[7] abbreviates: Conc. of Ligand/Protein 0.050 µM.
[8] abbreviates: Conc. of Ligand/Protein 0.100 µM.
[9] abbreviates: Conc. of Ligand/Protein 0.200 µM.
[10] abbreviates: Conc. of Ligand/Protein 0.400 µM.
[11] abbreviates: Conc. of Ligand/Protein 0.800 µM.
Setting [12] is: Conc. of Ligand/Protein 1.600 µM.
Setting [13] is: Conc. of Ligand/Protein 3.20 µM.
The mark [14] stands for this setting: Conc. of Ligand/Protein 5.00 µM.

Values after ≈ are worked out from the molar mass of the structure shown.

Broadly, the MIC is the lowest concentration found to suppress growth. The low end stands for inhibition by little substance, the high end for a need for much substance. On to `NCC[C@H](O)C(=O)N[C@@H]1C[C@H](N)[C@@H](O[C@H]2O[C@H](CN)[C@@H](O)[C@H](O)[C@H]2O)[C@H](O)[C@H]1O[C@H]1O[C@H](CO)[C@@H](O)[C@H](N)[C@H]1O` [Compound 2077, (S)-4-amino-N-((1R,2S,3S,4R,5S)-5-amino-2-(((2S,3R,4S,5S,6R)-4-amino-3,5-dihydroxy-6-(hydroxymethyl)tetrahydro-2H-pyran-2-yl)oxy)-4-(((2R,3R,4S,5S,6R)-6-(aminomethyl)-3,4,5-trihydroxytetrahydro-2H-pyran-2-yl)oxy)-3-hydroxycyclohexyl)-2-hydroxybutanamide], for which, in test [1], the “Zone of Inhibition” value was 15.57 ± 0.80 mm. This compound also gave an MIC in test [1] of 147.4 ± 0.8 µg/mL (≈ 252 µM). In addition, the “OD (biofilm formation)” value amounted to 0.7588 in test [2] (Conc. 5.0 (unit not given)); 0.5358 in test [2] (Conc. 10.0 (unit not given)); 0.3585 in test [2] (Conc. 15.0 (unit not given)); 0.2544 in test [2] (Conc. 20.0 (unit not given)); 0.1456 in test [2] (Conc. 25.0 (unit not given)). In addition, the “ΔH for Ligands” value is -20.11 kcal/mol in test [3] (Conc. of Ligand/Protein 00 µM); -19.15 kcal/mol in test [3] (setting [5]); -17.64 kcal/mol in test [3] (setting [6]); -14.67 kcal/mol in test [3] (setting [7]); -13.18 kcal/mol in test [3] (setting [8]); -9.9 kcal/mol in test [3] (setting [9]). In addition, the “ΔH for Ligands” value is -7.469 kcal/mol in test [3] (setting [10]); -4.818 kcal/mol in test [3] (setting [11]); -3.215 kcal/mol in test [3] (setting [12]); -2.476 kcal/mol in test [3] (setting [13]); 0 kcal/mol in test [3] (setting [14]). In addition, in test [3] (25 °C, pH 7.0, fitted), the “Binding Enthalpy ΔH” value is -11.92 kcal/mol. In addition, in test [3] (25 °C), the Kd was 129 µM.

For `OB1OCc2cc(F)ccc21` [AN2690], the “OD (biofilm formation)” value in test [2] (Conc. 5.0 (unit not given)) stood at 0.4256; in test [2] (Conc. 10.0 (unit not given)), 0.3658; in test [2] (Conc. 15.0 (unit not given)) it was 0.2452; in test [2] (Conc. 20.0 (unit not given)), 0.2048; in test [2] (Conc. 25.0 (unit not given)), 0.0980. For the same compound, in test [4], the “LeuRS gene expression (copies of mRNA per cycle)” value is “lower copies of LeuRS”.

On to `CC(C)C(N)C(=O)OCC(CO)OCn1cnc2c(=O)[nH]c(N)nc21` (stereo not drawn) [Compound 1035, 2-((2-amino-6-oxo-1H-purin-9(6H)-yl)methoxy)-3-hydroxypropyl 2-amino-3-methylbutanoate], for which the “Zone of Inhibition” value in test [1] was found to be 13.68 ± 0.21 mm. The compound further registered an MIC in test [1] of 119.87 ± 0.1 µg/mL (≈ 338 µM). In addition, the “OD (biofilm formation)” value in test [2] (Conc. 5.0 (unit not given)) stood at 0.7685; in test [2] (Conc. 10.0 (unit not given)), 0.6255; in test [2] (Conc. 15.0 (unit not given)), 0.5454; in test [2] (Conc. 20.0 (unit not given)) it was 0.3256; in test [2] (Conc. 25.0 (unit not given)), 0.1854. Moreover, the “ΔH for Ligands” value was -20.76 kcal/mol in test [3] (Conc. of Ligand/Protein 00 µM); -19.51 kcal/mol in test [3] (setting [5]); -18.06 kcal/mol in test [3] (setting [6]); -15.16 kcal/mol in test [3] (setting [7]); -13.83 kcal/mol in test [3] (setting [8]); -10.49 kcal/mol in test [3] (setting [9]). The “ΔH for Ligands” value in test [3] (setting [10]) was -8.164 kcal/mol; in test [3] (setting [11]) it was -5.521 kcal/mol; in test [3] (setting [12]), -3.884 kcal/mol; in test [3] (setting [13]), -3.023 kcal/mol; in test [3] (setting [14]) it was 0 kcal/mol. For the same compound, the “Binding Enthalpy ΔH” value in test [3] (25 °C, pH 7.0, fitted) was -11.75 kcal/mol. For the same compound, the Kd in test [3] (25 °C) was 23.9 µM.

As to `CC(C)(N)C(=O)N[C@H](Cc1c[nH]c2ccccc12)C(=O)N[C@H](Cc1c[nH]c2ccccc12)NC=O` [Compound 1054, 2-amino-N-((R)-1-(((R)-1-formamido-2-(1H-indol-3-yl)ethyl)amino)-3-(1H-indol-3-yl)-1-oxopropan-2-yl)-2-methylpropanamide], the “Zone of Inhibition” value in test [1] was found to be 18.45 ± 0.19 mm. The compound also gave an MIC in test [1] of 186.4 ± 0.21 µg/mL (≈ 393 µM). For the same compound, the “OD (biofilm formation)” value in test [2] (Conc. 5.0 (unit not given)) amounted to 0.5428; in test [2] (Conc. 10.0 (unit not given)), 0.4548; in test [2] (Conc. 15.0 (unit not given)), 0.3425; in test [2] (Conc. 20.0 (unit not given)) it was 0.2186; in test [2] (Conc. 25.0 (unit not given)) it was 0.1254. For the same compound, the “biofilm formation inhibitory activity” value in test [2] (in words, compared to control / other compounds) is recorded as “higher inhibition in biofilm formation”. Moreover, the “ΔH for Ligands” value in test [3] (Conc. of Ligand/Protein 00 µM) is -19.62 kcal/mol; in test [3] (setting [5]) it was -18.2 kcal/mol; in test [3] (setting [6]), -16.31 kcal/mol; in test [3] (setting [7]), -14.37 kcal/mol; in test [3] (setting [8]), -12.49 kcal/mol; in test [3] (setting [9]) it was -9.859 kcal/mol. Further, the “ΔH for Ligands” value in test [3] (setting [10]) is -7.106 kcal/mol; in test [3] (setting [11]), -4.89 kcal/mol; in test [3] (setting [12]) it was -3.145 kcal/mol; in test [3] (setting [13]), -2.49 kcal/mol; in test [3] (setting [14]), 0 kcal/mol. Further, the “Binding Enthalpy ΔH” value in test [3] was -48.23 kL/mol; in test [3] (25 °C, pH 7.0, fitted), -11.53 kcal/mol. In addition, the Kd in test [3] (25 °C) is 0.158 µM. Also, the “LeuRS gene expression (copies of mRNA per cycle)” value in test [4] is listed as “more effective in down-regulating the LeuRS gene”.

The values above are taken from publication PMC11201714, “Insights into the Effects of Ligand Binding on Leucyl-tRNA Synthetase Inhibitors for Tuberculosis: In Silico Analysis and Isothermal Titration Calorimetry Validation” (Biomolecules, 2024).
